Entries after “also recorded” stand apart in the source; their conditions may differ.
Assays:
Type in all cases: cell-based, human
PDX1 expression = assay: FGF inhibition assays: PDX1 expression in FGF2-treated hPS cell-derived definitive endoderm; conditions: for PDX1 expression: with FGF2 (64 ng/ml), real-time PCR, fold vs control at day eleven
Method: FGF receptor inhibition assays were performed by adding SU5402 (Calbiochem; […]), LY294002 (Cell Signalling technology; 12.5 μM) and U1026 (Cell Signalling technology; 10 μM) to the medium following DE induction at day three. Control cultures were treated with equal volume of the diluent DMSO. Fresh medium supplemented with appropriate inhibitor was added daily. Two to three samples were taken from separate wells at different time points (day 9-12) for mRNA analysis for each independent experiment.
(§1) Total RNA was extracted with GenElute Mammalian total RNA kit (Sigma-Aldrich). Total RNA concentrations were measured with the NanoDrop ND-1000 spectrophotometer (Nanodrop Technologies). Reverse transcription was performed with SuperScript III, according to the manufacturer's instructions, using 2.5 μM random hexamer and 2.5 μM oligo(dT) (Invitrogen). Real-time PCR measurements were performed on an ABI PRISM 7900HT Sequence Detector System (Applied Biosystems). 20 μl reactions containing 10 μl SuperMix-UDG w/ROX, 400 nM of each primer, 0.125× SYBR Green I (all reagents from Invitrogen) were used. Primer sequences are available as supplementary data (FIG. 6). Formation of expected PCR products was confirmed by agarose gel electrophoresis and melting curve analysis. Gene expression data was normalized against ACTB or RPL7 expression. […] Real-time PCR data analysis was performed as described (Bustin, 2000; Stahlberg et al., 2005).

hPS cells = assay: Immunofluorescence stainings of hPS cells treated with different FGF2 concentrations
Method: (§2) At day three, cells were washed with PBS and human FGF2 (Invitrogen) was added at different concentrations (0-256 ng/ml according to specifications in the results) in a KO-DMEM based medium containing 1% Penicillin-streptomycin, 1% Glutamax, 1% non-essential amino acids, 0.1mM beta-Mercaptoethanol and 12% knockout serum replacement (all reagents from Invitrogen). Medium was changed every day. Control cultures without FGF2 were grown in parallel and cell morphology was monitored daily. At each time point, two to four biological replicates were taken for each independent experiment. More specifically, each well was divided into 4-5 equal pieces depending on the number of time points that were analyzed.
hPS cells were fixed in 4% paraformaldehyde for 15 minutes at room temperature and washed three times in PBS-T (0.1% Triton X-100 in PBS). Fixed cells were permeabilized with 0.5% Triton X-100 in PBS for 15 minutes and blocked in PBS-T supplemented with 5% normal donkey serum (Jackson lmmunoresearch) for 1 h at room temperature before they were incubated overnight at 4° C. with the following primary antibodies and dilutions: goat polyclonal antibody (pAb) anti-FOXA-2 (kind gift from Palle Serup; Santa Cruz Biotechnology; 1:200), Guinea Pig pAb anti-PDX-1 (Chris Wright; BetaCellBiologyConsortium; 1:1500), Goat anti-PDX-1 (Chris Wright; BetaCellBiologyConsortium; 1:1500), rabbit pAb anti-NKX6.1 (BetaCellBiologyConsortium; 20 1:4000), mouse anti-CDX-2 (kind gift from Jonathan Draper; Biogenex; 1:500), rabbit pAb anti-SOX-9 (Chemicon; 1:500), rabbit anti-HNF-6 (Santa Cruz Biotechnology; 1:400), mouse mAb-anti PH-3 (Cell Signaling technology; 1:50), rabbit pAb-anti MKi67 (Novocastra; 1:200), rabbit anti-S0X2 (kind gift from Palle Serup; Chemicon; 1:250), goat anti-albumin (Bethyl laboratories; 1:300). After overnight incubation cells were washed three times for 5 minutes in PBS; and incubated with corresponding fluorescent secondary antibodies (Alexa 488, Cy3 and 647; Jackson lmmunoresearch and Invitrogen; diluted according to the manufacturer's instructions) for 60 min in PBS-T supplemented with 5% serum at room temperature. Cell nuclei were visualized by 4′-6′diamidino-2-phenylindole (DAPI) (Sigma-Aldrich; 1:1000) incubation for 4 minutes. Immunofluorescence stainings were detected and analyzed by epifluorescence microscopy (Zeiss Axioplan 2).
The percentage of PDX1 positive cells was calculated using the Imaris Imaging software (Bitplane). Ten randomly selected fields were chosen for each parameter. Using DAPI staining the software estimated the total area of cells. The area of the PDX1 positive cells was calculated in the same manner. Finally, the percentage of PDX1 positive cells was calculated by dividing the area of PDX1 positive cells by the DAPI positive area. Raw data from realtime PCR measurements was exported from SDS 2.2.1 and analyzed by Microsoft Excel graph pad. All data were statistically analyzed by multivariate comparison (one-way ANOVA) with Bonferroni correction. All values are depicted as mean±standard error of the mean (SEM) and considered significant if p<0.05.

[1] = tested on: hPS cell derived definitive endoderm; assay: Real-time PCR marker expression in hPS cell-derived definitive endoderm treated with FGF2
Method: hPS cells were seeded at a density of 12,000-24,000 cells/cm^2 and cultured until confluence. hPS cells were then differentiated into definitive endoderm as described previously (D'Amour et al., 2005). Briefly, cells were washed in PBS and treated with 100 ng/ml Activin A (R&D systems) and 25 ng/ml Wingless-type MMTV integration site family, member 3A (Wnt3a) in RPM! 1640 (GIBCO, Invitrogen) for three days in low serum (0-0.2% FBS).
as §2, §1

[2] = tested on: hPS-derived definitive endoderm; assay: Differentiation towards PDX-1 positive pancreatic endoderm with a single FGF instead of FGF2; conditions: used alone instead of FGF2
[3] = all FGF2 treated samples (4-256 ng/ml), day eleven, vs control
[4] = higher FGF2 concentration, day eleven
[5] = increasing FGF2 concentrations, day eleven, vs control (Activin A only)

## O=c1cc(N2CCOCC2)oc2c(-c3ccccc3)cccc12 [LY294002]
PDX1 expression; inhibitor 12.5 μM
  PDX1 expression: no significant effect

## FGF2: human fibroblast growth factor 2 (Invitrogen) added to the culture medium
hPS cells; 4 ng/ml FGF2
  ALB+ cells (ALB stainings): abundant
  PDX1+ cells: absent
hPS cells; 64 ng/ml FGF2, Imaris Imaging software, PDX1 area / DAPI area
  number of PDX1+ cells (percentage of PDX1 positive cells): 15-20%
hPS cells; 256 ng/ml FGF2
  ALB+ cells (ALB stainings): none
  number of CDX2+ cells: highest number
hPS cells; 32, 64 and 256 ng/ml FGF2
  PDX1+ cells: always present
[1]; 4 ng/ml FGF2, day eleven, vs control (Activin A only)
  PDX1 mRNA expression: remained unchanged
[1]; 64 ng/ml FGF2, day eleven
  NKX6-1 mRNA expression: peak expression
  PDX1 mRNA expression: peak expression
[1]; 256 ng/ml FGF2, day eleven
  CDX2 mRNA expression: upregulated
  FGF10 mRNA expression: peak expression
  MNX1 mRNA expression: upregulated
  NKX2-1 mRNA expression: peak expression
  PTCH1 mRNA expression: peak expression
  SHH mRNA expression: peak expression
  SOX2 mRNA expression: significantly upregulated
  SPRY2 mRNA expression: peak expression
[1]; FGF2 range tested, day eleven
  CDX1 mRNA expression: remained unaffected
[1]; [3]
  NGN3 mRNA expression: upregulated
  SOX9 mRNA expression: upregulated
[1]; all samples, day eleven
  CPA1 mRNA expression: remained unchanged
  FOXA2 mRNA expression: remained unchanged
[1]; any FGF2 concentration
  CDX4 expression: not detected
[1]; [4]
  FGFR1 expression: upregulated
  FGFR2 expression: downregulated
  FGFR3 expression: upregulated
  FGFR4 expression: downregulated
[1]; increasing FGF2 concentrations (data not shown)
  thyroglobulin (TG) mRNA expression: downregulated
[1]; [5]
  ALB mRNA expression: downregulated
  HNF4A mRNA expression: downregulated
  ONECUT1 mRNA expression: downregulated
[1]; tested FGF2 concentrations, non-dose-dependent
  HHEX expression: only moderately reduced

## Cc1c[nH]c(/C=C2\C(=O)Nc3ccccc32)c1CCC(=O)O [SU5402]
PDX1 expression; SU5402 with FGF2 (64 ng/ml)
  number of PDX1 positive cells: significantly decreased
PDX1 expression; inhibitor 10 μM
  PDX1 expression: significantly reduced

## N#CC(=C(/N)Sc1ccccc1N)/C(C#N)=C(/N)Sc1ccccc1N [U1026]
PDX1 expression; inhibitor 10 μM
  PDX1 expression: diminished; also recorded: significantly reduced

B1: FGF4: fibroblast growth factor tested alone instead of FGF2 (protein, UniProt P08620 31-206, looked up)
Fibroblast growth factor 4: APTAPNGTLEAELERRWESLVALSLARLPVAAQPKEAAVQSGAGDYLLGIKRLRRLYCNVGIGFHLQALPDGRIGGAHADTRDSLLELSPVERGVVSIFGVASRFFVAMSSKGKLYGSPFFTDECTFKEILLPNNYNAYESYKYPGMFIALSKNGKTKKGNRVSPTMKVTHFLPRL
[2]
  induction of differentiation towards PDX-1 positive pancreatic endoderm: neither FGF4, FGF7 nor FGF10, when used alone instead of FGF2, is capable of inducing differentiation

B2: FGF7: fibroblast growth factor tested alone instead of FGF2 (protein, UniProt P21781 32-194, looked up)
Fibroblast growth factor 7: CNDMTPEQMATNVNCSSPERHTRSYDYMEGGDIRVRRLFCRTQWYLRIDKRGKVKGTQEMKNNYNIMEIRTVAVGIVAIKGVESEFYLAMNKEGKLYAKKECNEDCNFKELILENHYNTYASAKWTHNGGEMFVALNQKGIPVRGKKTKKEQKTAHFLPMAIT
[2]
  induction of differentiation towards PDX-1 positive pancreatic endoderm: neither FGF4, FGF7 nor FGF10, when used alone instead of FGF2, is capable of inducing differentiation

B3: FGF10: fibroblast growth factor tested alone instead of FGF2 (protein, UniProt O15520 38-208, looked up)
Fibroblast growth factor 10: QALGQDMVSPEATNSSSSSFSSPSSAGRHVRSYNHLQGDVRWRKLFSFTKYFLKIEKNGKVSGTKKENCPYSILEITSVEIGVVAVKAINSNYYLAMNKKGKLYGSKEFNNDCKLKERIEENGYNTYASFNWQHNGRQMYVALNGKGAPRRGQKTRRKNTSAHFLPMVVHS
[2]
  induction of differentiation towards PDX-1 positive pancreatic endoderm: neither FGF4, FGF7 nor FGF10, when used alone instead of FGF2, is capable of inducing differentiation
